The results in this text go back to patent US20240270699A1, “COMPOUNDS HAVING N-ARYLPYRIMIDIN-2-AMINE DERIVATIVES AS THERAPEUTIC AGENTS” (Lomond Therapeutics, Inc., priority 2021, published 2024).

For one assay, the system named is Jurkat cells. Kind of assay: IL-2 release Jurkat assay (anti-CD3/anti-CD28 stimulation, IL-2 ELISA). The format is cell-based, human. The settings on record: activation with 400 ng/mL aCD3 + 400 ng/mL aCD28, 24 hours. For orientation: An ELISA detects its analyte on a solid surface through an enzyme-linked reagent.
The target in another assay is T1, recombinant HPK1 protein (Homo sapiens, UniProt Q92918).
T1 construct: purchased Promega V6398
T1 sequence (Q92918 1-346 limits assumed): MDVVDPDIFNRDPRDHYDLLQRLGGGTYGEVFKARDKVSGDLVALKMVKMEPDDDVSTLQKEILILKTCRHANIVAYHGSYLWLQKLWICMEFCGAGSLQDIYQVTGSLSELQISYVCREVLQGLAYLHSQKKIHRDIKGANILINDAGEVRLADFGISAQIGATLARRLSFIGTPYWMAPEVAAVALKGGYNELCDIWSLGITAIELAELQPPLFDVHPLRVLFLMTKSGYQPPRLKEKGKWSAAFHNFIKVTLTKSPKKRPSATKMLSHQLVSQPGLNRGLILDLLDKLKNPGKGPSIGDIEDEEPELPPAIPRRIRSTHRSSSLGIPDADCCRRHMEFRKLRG
Kind of assay: Primary assay of HPK1 enzymatic activity inhibition (ADP-Glo luminescence). It is filed as biochemical. Conditions: recombinant HPK1, MBP substrate, 1 hour at room temperature. On the technique in general: ADP-Glo turns the ADP formed in a reaction into a luminescent signal.

The mark [1] stands for this setting: Table B: Jurkat, 1.5 μM of tested compounds.
Setting [2] is: Table F: Jurkat, 1.0 μM of tested compounds.
[3] abbreviates: Table C: Jurkat, 6 μM of tested compounds, stimulated vehicle = A.
The mark [4] stands for this setting: Table E: Jurkat, 1.5 μM of tested compounds.
The mark [5] stands for this setting: Table D: Jurkat, 6 μM of tested compounds, stimulated vehicle = B.

Each structure is given as a SMILES string. Where only a bound is given, the exact number is not on record here.

As a reminder, the IC50 is the midpoint of a concentration-inhibition curve. In the case of `CC(C)NC(=O)c1cnc(Nc2ccc3c(c2)CCN(C)C3=O)nc1N[C@H](CO)c1ccccc1` [Compound 212, 4-{[(1S)-2-hydroxy-1-phenylethyl]amino}-2-[(2-methyl-1-oxo-1,2,3,4-tetrahydroisoquinolin-6-yl)amino]-N-(propan-2-yl)pyrimidine-5-carboxamide], the “IL-2, pg/mL stimulated” value with Jurkat cells (setting [1]) was “C (25.0 pg/mL≤IL-2<35.0 pg/mL)”. The IC50 on recombinant HPK1 protein lay in the range of 50 to 200 nM.

As for `CN(C)Cc1noc(-c2cnc(Nc3ccc4c(c3)CCCS4(=O)=O)nc2N[C@H](CO)c2ccccc2)n1` [Compound 583, (2S)-2-[[5-[3-[(dimethylamino)methyl]-1,2,4-oxadiazol-5-yl]-2-[(1,1-dioxo-3,4-dihydro-2H-thiochromen-6-yl)amino]pyrimidin-4-yl]amino]-2-phenyl-ethanol], the “IL-2, pg/mL stimulated” value in the assay with Jurkat cells (setting [2]) is “B (50 pg/mL≤IL-2<100 pg/mL)”. Besides, at recombinant HPK1 protein, the IC50 is less than 50 nM.

As to `CCOC(=O)c1cnc(Nc2ccc3c(c2)CCNC3=O)nc1N[C@H](CO)c1ccc(OC)cc1` [Compound 569, ethyl 4-[[(1S)-2-hydroxy-1-(4-methoxyphenyl)ethyl]amino]-2-[(1-oxo-3,4-dihydro-2H-isoquinolin-6-yl)amino]pyrimidine-5-carboxylate], in the assay with Jurkat cells (setting [1]), the “IL-2, pg/mL stimulated” value is “C (25.0 pg/mL≤IL-2<35.0 pg/mL)”. Also, the IC50 on recombinant HPK1 protein was less than 50 nM.

With `Cc1noc(-c2cnc(Nc3ccc4c(c3)C(C)(C)NC4=O)nc2N[C@H](CO)c2ccccc2)n1` [Compound 579, 5-[[4-[[(1S)-2-hydroxy-1-phenyl-ethyl]amino]-5-(3-methyl-1,2,4-oxadiazol-5-yl)pyrimidin-2-yl]amino]-3,3-dimethyl-isoindolin-1-one], the “IL-2, pg/mL stimulated” value in the assay on Jurkat cells (setting [2]) is “A (IL-2<50 pg/mL)”. The IC50 on recombinant HPK1 protein is less than 50 nM.

Turning to `CCOC(=O)c1cnc(Nc2cccc(S(C)(=O)=O)c2)nc1N[C@H](CO)c1ccccc1` [Compound 69], the “IL-2, pg/mL stimulated” value in the assay with Jurkat cells (setting [3]) is reported as “B (50 pg/mL≤IL-2<100 pg/mL)”. Further, the IC50 at recombinant HPK1 protein lay within 200 to 500 nM.

`CNC(=O)c1cnc(Nc2ccc3c(c2)CCN(C)C3=O)nc1N[C@H](CO)c1ccccc1` [Compound 43, 4-{[(1S)-2-hydroxy-1-phenylethyl]amino}-N-methyl-2-[(2-methyl-1-oxo-1,2,3,4-tetrahydroisoquinolin-6-yl)amino]pyrimidine-5-carboxamide]: the “IL-2, pg/mL stimulated” value in the assay with Jurkat cells (setting [1]) is reported as “D (35.0 pg/mL≤IL-2)”. Further, on recombinant HPK1 protein, the IC50 lay in the range of 50 to 200 nM.

For the compound `O=S1(=O)CCCc2cc(Nc3ncc(-c4nc(CN5CCCC5)no4)c(N[C@H](CO)c4ccccc4)n3)ccc21` [Compound 586, (2S)-2-[[2-[(1,1-dioxo-3,4-dihydro-2H-thiochromen-6-yl)amino]-5-[3-(pyrrolidin-1-ylmethyl)-1,2,4-oxadiazol-5-yl]pyrimidin-4-yl]amino]-2-phenyl-ethanol], in the assay on Jurkat cells (Table G: Jurkat, 1.0 μM of tested compounds), the “IL-2, pg/mL stimulated” value was “D (150 pg/mL≤IL-2)”. Also, at recombinant HPK1 protein, the IC50 was less than 50 nM.

`CCOC(=O)c1cnc(Nc2ccc3c(c2)CCNC3=O)nc1N[C@H](CO)c1ccccc1` [Compound 45, Ethyl 4-{[(1S)-2-hydroxy-1-phenylethyl]amino}-2-[(1-oxo-1,2,3,4-tetrahydroisoquinolin-6-yl)amino]pyrimidine-5-carboxylate]: the “IL-2, pg/mL stimulated” value in the assay with Jurkat cells (setting [3]) is “B (50 pg/mL≤IL-2<100 pg/mL)”. For the same compound, the IC50 on recombinant HPK1 protein is less than 50 nM.

With `CCOC(=O)c1cnc(Nc2ccc(C(=O)N(C)C)c(Cl)c2)nc1N[C@H](CO)c1ccccc1` [Compound 266, Ethyl 2-[3-chloro-4-(dimethylcarbamoyl)anilino]-4-[[(1S)-2-hydroxy-1-phenyl-ethyl]amino]pyrimidine-5-carboxylate], the “IL-2, pg/mL stimulated” value in the assay on Jurkat cells (setting [3]) is on record as “C (100 pg/mL≤IL-2<150 pg/mL)”. The IC50 on recombinant HPK1 protein fell in the range of 200 to 500 nM.

`Cc1cc(Nc2ncc(C(=O)NCC(F)(F)F)c(N[C@H](CO)c3ccccc3)n2)ccc1S(C)(=O)=O` [Compound 490, 4-{[(1S)-2-hydroxy-1-phenylethyl]amino}-2-{[3-methyl-4-(methylsulfonyl)phenyl]amino}-N-(2,2,2-trifluoroethyl)pyrimidine-5-carboxamide]: the “IL-2, pg/mL stimulated” value in the assay on Jurkat cells (setting [1]) is on record as “B (5.0 pg/mL≤IL-2<25.0 pg/mL)”. Besides, the IC50 at recombinant HPK1 protein was less than 50 nM.

As for `CCOC(=O)c1cnc(Nc2ccc3c(c2)CCCNC3=O)nc1N[C@H](CO)c1ccccc1` [Compound 566, ethyl 4-[[(1S)-2-hydroxy-1-phenyl-ethyl]amino]-2-[(1-oxo-2,3,4,5-tetrahydro-2-benzazepin-7-yl)amino]pyrimidine-5-carboxylate], the “IL-2, pg/mL stimulated” value in the assay with Jurkat cells (setting [4]) is “D (150 pg/mL≤IL-2)”. For the same compound, the IC50 on recombinant HPK1 protein is less than 50 nM.

Consider `CS(=O)(=O)c1ccc(Nc2ncc(C(N)=O)c(N[C@H](CO)c3ccccc3)n2)cc1F` [Compound 31, 2-{[3-fluoro-4-(methylsulfonyl)phenyl]amino}-4-{[(1S)-2-hydroxy-1-phenylethyl]amino}pyrimidine-5-carboxamide], for which, in the assay on Jurkat cells (setting [1]), the “IL-2, pg/mL stimulated” value is listed as “C (25.0 pg/mL≤IL-2<35.0 pg/mL)”. Further, the IC50 on recombinant HPK1 protein lay within 50 to 200 nM.

Consider `CS(=O)(=O)c1ccc(Nc2ncc(C(=O)OCCO)c(N[C@H](CO)c3ccccc3)n2)cc1F` [Compound 319], for which the “IL-2, pg/mL stimulated” value in the assay on Jurkat cells (setting [3]) is on record as “D (150 pg/mL≤IL-2)”. In addition, at recombinant HPK1 protein, the IC50 is less than 50 nM.

In the case of `CCOC(=O)c1cnc(Nc2ccc(C(N)=O)c(C)c2)nc1N[C@H](CO)c1ccccc1` [Compound 10, Ethyl 2-(4-carbamoyl-3-methyl-anilino)-4-[[(1S)-2-hydroxy-1-phenyl-ethyl]amino]pyrimidine-5-carboxylate], the “IL-2, pg/mL stimulated” value in the assay with Jurkat cells (setting [5]) is reported as “D (150 pg/mL≤IL-2)”. Also, the IC50 at recombinant HPK1 protein was in the range of 50 to 200 nM.

In the case of `CCOC(=O)c1cnc(Nc2ccc(S(=O)(=O)C(C)C)cc2)nc1N[C@H](CO)c1ccccc1` [Compound 274, Ethyl 4-{[(1S)-2-hydroxy-1-phenylethyl]amino}-2-{[4-(propan-2-ylsulfonyl)phenyl]amino}pyrimidine-5-carboxylate], in the assay on Jurkat cells (setting [3]), the “IL-2, pg/mL stimulated” value was “B (50 pg/mL≤IL-2<100 pg/mL)”. At recombinant HPK1 protein, the IC50 was in the range of 200 to 500 nM.

As to `Cc1cc(Nc2ncc([N+](=O)[O-])c(N[C@H](CO)c3ccccc3)n2)ccc1S(C)(=O)=O` [Compound 18, (2S)-2-[[2-(3-methyl-4-methylsulfonyl-anilino)-5-nitro-pyrimidin-4-yl]amino]-2-phenyl-ethanol], the “IL-2, pg/mL stimulated” value with Jurkat cells (setting [3]) was “D (150 pg/mL≤IL-2)”. Besides, the IC50 on recombinant HPK1 protein lay in the range of 200 to 500 nM.

`CCOC(=O)CCCCCc1nnc(-c2cnc(Nc3ccc(S(C)(=O)=O)c(C)c3)nc2N[C@H](CO)c2ccccc2)o1` [Compound 561, Ethyl 6-[5-[4-[[(1S)-2-hydroxy-1-phenyl-ethyl]amino]-2-(3-methyl-4-methylsulfonyl-anilino)pyrimidin-5-yl]-1,3,4-oxadiazol-2-yl]hexanoate]: the “IL-2, pg/mL stimulated” value with Jurkat cells (setting [5]) is given as “B (50 pg/mL≤IL-2<100 pg/mL)”. The IC50 on recombinant HPK1 protein is 50 to 200 nM.

For `CC(C)NC(=O)c1cnc(Nc2ccc(S(C)(=O)=O)c(F)c2)nc1N[C@H](CO)c1ccccc1` [Compound 301, 2-{[3-fluoro-4-(methylsulfonyl)phenyl]amino}-4-{[(1S)-2-hydroxy-1-phenylethyl]amino}-N-(propan-2-yl)pyrimidine-5-carboxamide], the “IL-2, pg/mL stimulated” value in the assay with Jurkat cells (setting [1]) was “A (IL-2<5.0 pg/mL)”. At recombinant HPK1 protein, the IC50 fell in the range of 200 to 500 nM.

For `CCOC(=O)c1cnc(Nc2ccc(S(=O)(=O)CC)cc2)nc1N[C@H](CO)c1ccccc1` [Compound 168, Ethyl 2-{[4-(ethylsulfonyl)phenyl]amino}-4-{[(1S)-2-hydroxy-1-phenylethyl]amino}pyrimidine-5-carboxylate], in the assay with Jurkat cells (setting [3]), the “IL-2, pg/mL stimulated” value was “A (IL-2<50 pg/mL)”. In addition, at recombinant HPK1 protein, the IC50 was 50 to 200 nM.

Turning to `CCOC(=O)c1cnc(Nc2ccc3c(c2)CCC(=O)N3)nc1N[C@H](CO)c1ccccc1` [Compound 46, Ethyl 4-[[(1S)-2-hydroxy-1-phenyl-ethyl]amino]-2-[(2-oxo-3,4-dihydro-1H-quinolin-6-yl)amino]pyrimidine-5-carboxylate], the “IL-2, pg/mL stimulated” value with Jurkat cells (setting [5]) was “D (150 pg/mL≤IL-2)”. In addition, at recombinant HPK1 protein, the IC50 is less than 50 nM.

For the compound `CCOC(=O)c1cnc(Nc2ccc3c(c2)CCCS3(=O)=O)nc1N[C@H](CO)c1ccccc1` [Compound 573, ethyl 2-[(1,1-dioxo-3,4-dihydro-2H-thiochromen-6-yl)amino]-4-[[(1S)-2-hydroxy-1-phenyl-ethyl]amino]pyrimidine-5-carboxylate], the “IL-2, pg/mL stimulated” value in the assay with Jurkat cells (setting [4]) is recorded as “C (100 pg/mL≤IL-2<150 pg/mL)”. Further, the IC50 at recombinant HPK1 protein was less than 50 nM.

With `CNC(=O)c1cnc(Nc2ccc(S(C)(=O)=O)c(C)c2)nc1N[C@H](CO)c1ccccc1` [Compound 65, 4-{[(1S)-2-hydroxy-1-phenylethyl]amino}-N-methyl-2-{[3-methyl-4-(methylsulfonyl)phenyl]amino}pyrimidine-5-carboxamide], the “IL-2, pg/mL stimulated” value in the assay with Jurkat cells (setting [1]) is listed as “D (35.0 pg/mL≤IL-2)”. In addition, the IC50 on recombinant HPK1 protein was 50 to 200 nM.

As to `COCCNC(=O)c1cnc(Nc2ccc(S(C)(=O)=O)c(F)c2)nc1N[C@H](CO)c1ccccc1` [Compound 401, 2-(3-fluoro-4-methylsulfonyl-anilino)-4-[[(1S)-2-hydroxy-1-phenyl-ethyl]amino]-N-(2-methoxyethyl)-pyrimidine-5-carboxamide], in the assay on Jurkat cells (setting [3]), the “IL-2, pg/mL stimulated” value is “A (IL-2<50 pg/mL)”. Further, the IC50 at recombinant HPK1 protein was in the range of 50 to 200 nM.
